Measurements reported in patent US9999218B2, “Pest control formulations and methods of making and using same” (0903608 B.C. Ltd., priority 2011, dated 2018).
Read-outs that look alike come from different tables or passages of the source.

Legend:
adult bed bugs [1] = format: in vivo
bed bug eggs [2] = format: in vivo, Cimex lectularius L.
From the text: Immediately after infestation, and at 1-, 2-, and 3-week intervals thereafter, the numbers of hatched and unhatched eggs present in the sealed dishes were counted and compared to other Treated Groups. One egg was counted as “hatched” for every new nymph present in the petri dish when compared with the prior interval. Table 13 compares the % egg eclosion of the treated groups at the 3-week observation interval. The maximum mortality data obtained in Example 3, above, are included for comparison purposes.

adult bed bugs [3] = settings: […] neem oil + […] named solvent in isopropanol, 4 h dried in highly-ventilated room; for Max. Mortality: observed until 14 days
Experimental: This example illustrates the dry residual pesticidal activity of formulations including neem oil and various organic solvents including alcohols, ketones, esters and carboxylic acids. […] The percent by weight of each solvent was varied to ensure a consistent molar quantity of solvent in each solution. Treated Groups for each solution were prepared by treating filter paper, 90 mm in diameter, with 1.0 mL of solution and allowing it to air dry for four hours in a highly-ventilated room. A known number of adults were added to each treated dish, four hours after treatment. Bed bug mortality was assessed immediately after infestation and at 1-hour, 2-hour, 4-hour, 6-hour, 8-hour, 10-hour, 12-hour, and 24-hour intervals, and at 24-hour intervals thereafter until 14 days after infestation. Adult bed bugs were counted dead if they were unresponsive when stimulated.

bed bug eggs [4] = assay: Prevention of egg emergence by various pesticidal natural oils (Example 11); format: in vivo, Cimex lectularius L.; settings: […] by weight oil with 5.0% acetophenone; all observation intervals
Experimental: Five bed bug eggs were added to each treated dish, two hours after treatment. Immediately after infestation, and at 1-, 2-, and 3-week intervals thereafter, the numbers of hatched and unhatched eggs present in the sealed dishes were counted and compared to other Treated Groups. One egg was counted as “hatched” for every new nymph present in the petri dish when compared with the prior interval. Table 12 compares the mean % egg eclosion of the treated groups at three weeks post-infestation. The maximum mortality data obtained in Example 2, above, are included for each formulation, for comparison purposes.

adult bed bugs [5] = settings: in vivo
Experimental: This example illustrates the dry residual pesticidal activity of formulations comprising further pesticidal natural oils (thyme, garlic and neem oils) with acetophenone as the polar aromatic solvent. Solutions were prepared using 5.5% by weight natural oil; the percentage by weight of organic solvent indicated in Table 20 and an appropriate amount of isopropanol as a carrier diluent. Solvent was added to a final concentration of 1.5 mol/kg. Solutions were also prepared of each natural oil alone (5.5% by weight with an appropriate amount of isopropanol as a carrier diluent), and of the polar organic solvent alone (the percent by weight indicated in Table 20 with an appropriate amount of isopropanol as a carrier diluent). Treated Groups for each solution were prepared by treating filter paper, 90 mm in diameter, with 1.0 mL of solution and allowing it to air dry for four hours. A known number of adults (usually 10) were added to each treated dish, four hours after treatment. Bed bug mortality was assessed immediately after infestation and at 1-hour, 2-hour, 4-hour, 6-hour, 8-hour, 10 hour, 12-hour, and 24-hour intervals, and at 24-hour intervals thereafter until 14 days after infestation. Adult bed bugs were counted dead if they were unresponsive when stimulated.

[6] = […] neem oil + […] named solvent in isopropanol, 4 h dried residue
[7] = […] neem oil + […] named solvent in isopropanol, 4 h dried residue, observed until 14 days
[8] = […] neem oil + named solvent in isopropanol, 4 h dried residue, 3 weeks after infestation

Row | Compound | Time to Max Mortality (adult bed bugs [1]; [6]) [h] | Max. Mortality (adult bed bugs [1]; [7]) [%] | % Eclosion (bed bug eggs [2]; [8]) [%] | Time to Max Mortality (adult bed bugs [3]) [days] | Max. Mortality (adult bed bugs [3]) [%] | also measured
1 | CC(O)c1ccccc1 (stereo not shown) [1-Phenylethanol] | 24 | 100 | 0 | – | – | –
2 | O=C(c1ccc(O)cc1O)c1ccc(O)cc1O [2,2′-4,4′ Tetrahydroxybenzophenone] | 24 | 100 | 0 | – | – | –
3 | CC(C)CC(O)CC(C)C [2,6-Dimethyl-4-heptanol] | – | – | – | 14 | 20 | –
4 | CCCCCCC(CO)CCCC (stereo not shown) [2-Butyl-1-octanol] | – | – | – | 8 | 100 | –
5 | CCCCC(CC)CO (stereo not shown) [2-Ethyl-1-hexanol] | – | – | 0 | – | – | Max. Mortality (adult bed bugs [1]; in vivo): 100%; Time to Max Mortality (adult bed bugs [1]; in vivo): 72 h
6 | CC(C)(O)c1ccccc1 [2-Phenyl-2-propanol] | – | – | – | 1 | 100 | –
7 | CC(C)O [2-Propanol (IPA), 2-Propanol] | 140 | 40 | – | – | – | –
8 | CCCCCCCCC(CO)CCCCCC (stereo not shown) [2-hexyl-1-decanol] | – | – | – | 14 | 100 | –
9 | Cc1ccc(O)c(C=O)c1 [2-hydroxy-5-methyl benzaldehyde] | – | – | – | 1 | 100 | –
10 | CC(=O)OC1CCCCC1C(C)(C)C (stereo not shown) [2-tert-Butylcyclohexylacetate] | 96 | 100 | 20 | – | – | –
11 | CC(=O)c1ccc(C)cc1C [2′,4′-Dimethylacetophenone] | 24 | 100 | 0 | – | – | –
12 | CC(=O)c1ccccc1O [2′-Hydroxyacetophenone] | – | – | – | 1 | 100 | –
13 | Cc1ccc(CO)cc1C [3,4-dimethylbenzyl alcohol] | – | – | – | 14 | 100 | –
14 | CC(=O)c1ccc(C)c(C)c1 [3′,4′-Dimethylacetophenone] | 48 | 100 | 0 | – | – | –
15 | O=C(O)c1ccc(O)cc1 [4-Hydroxy benzoic acid] | – | – | – | 1 | 100 | –
16 | Cc1cc(C(=O)O)ccc1O [4-Hydroxy-3-methyl benzoic acid] | – | – | – | 14 | 60 | –
17 | CC(=O)c1ccc(O)cc1 [4′-Hydroxyacetophenone] | – | – | – | 9 | 50 | –
18 | CCCCC(=O)c1ccc(O)cc1 [4′-Hydroxyvalerophenone] | – | – | – | 14 | 70 | –
19 | CC(=O)c1ccc(C)cc1 [4′-Methylacetophenone] | 48 | 100 | 0 | – | – | –
20 | CCC(=O)c1ccc(C)cc1 [4′-Methylpropiophenone] | 24 | 100 | 0 | – | – | –

Row | Compound | Time to Max Mortality (adult bed bugs [1]; [6]) [h] | Max. Mortality (adult bed bugs [1]; [7]) [%] | % Eclosion (bed bug eggs [2]; [8]) [%] | Time to Max Mortality (adult bed bugs [3]) [days] | Max. Mortality (adult bed bugs [3]) [%] | also measured
21 | Cc1ccc(C(C)O)cc1 (stereo not drawn) [Alpha-4-dimethylbenzyl alcohol] | – | – | – | 1 | 100 | –
22 | O=Cc1ccccc1 [Benzaldehyde] | 336 | 100 | 0 | – | – | –
23 | c1ccccc1 [Benzene] | – | – | – | 14 | 40 | –
24 | O=C(O)c1ccccc1 [Benzoic acid] | – | – | 0 | – | – | Max. Mortality (adult bed bugs [1]; in vivo): 100%; Time to Max Mortality (adult bed bugs [1]; in vivo): 48 h
25 | OCc1ccccc1 [Benzyl alcohol] | 24 | 100 | 0 | – | – | –
26 | O=C(OCc1ccccc1)c1ccccc1 [Benzyl benzoate] | – | – | – | 8 | 100 | –
27 | COCc1ccccc1 [Benzyl methyl ether] | – | – | – | 8 | 60 | –
28 | CCCCOc1ccccc1 [Butyl phenyl ether] | – | – | – | 6 | 100 | –
29 | CCCC(=O)c1ccccc1 [Butyrophenone] | 24 | 100 | 0 | – | – | –
30 | OC1CCCCC1 [Cyclohexanol] | 336 | 60 | 60 | – | – | –
31 | O=C1CCCCC1 [Cyclohexanone] | 240 | 50 | 40 | – | – | –
32 | O=C(c1ccccc1)C1CCCCC1 [Cyclohexyl phenyl ketone] | – | – | – | 8 | 90 | –
33 | c1ccc(COCc2ccccc2)cc1 [Dibenzyl ether] | – | – | – | 7 | 90 | –
34 | c1ccc(Oc2ccccc2)cc1 [Diphenyl ether] | – | – | – | 3 | 100 | –
35 | CCOC(C)=O [Ethyl acetate] | 336 | 30 | 100 | – | – | –
36 | CCOC(=O)c1ccccc1 [Ethyl benzoate] | – | – | – | 2 | 100 | –
37 | CCCCCC(=O)c1ccccc1 [Hexanophenone] | 140 | 100 | 0 | – | – | –
38 | CC(C)COC(=O)c1ccccc1 [Isobutyl benzoate] | – | – | – | 8 | 90 | –
39 | CC(C)C(=O)c1ccccc1 [Isobutyrophenone] | 48 | 100 | 0 | – | – | –
40 | CC(=O)C1CCCCC1 [Methylcyclohexylketone] | 264 | 70 | 80 | – | – | –

Row | Compound | Time to Max Mortality (adult bed bugs [1]; [6]) [h] | Max. Mortality (adult bed bugs [1]; [7]) [%] | % Eclosion (bed bug eggs [2]; [8]) [%] | Time to Max Mortality (adult bed bugs [3]) [days] | Max. Mortality (adult bed bugs [3]) [%] | also measured
41 | Oc1ccccc1 [Phenol] | – | – | – | 1 | 100 | –
42 | CCC(=O)c1ccccc1 [Propiophenone] | 24 | 100 | 0 | – | – | –
43 | CCCOC(=O)c1ccc(O)cc1 [Propyl-4-hydroxybenzoate] | 24 | 100 | 0 | – | – | –
44 | CCCCO [Solution 1-Butanol, 1-Butanol] | – | – | – | – | – | Max. Mortality (adult bed bugs [1]; in vivo): 40%; Time to Max Mortality (adult bed bugs [1]; in vivo): 190 h; % Eclosion (bed bug eggs [2]; in vivo): 100%
45 | CCCCCCCCCCO [Solution 1-Decanol, 1-Decanol] | – | – | 0 | – | – | Max. Mortality (adult bed bugs [1]; in vivo): 100%; Time to Max Mortality (adult bed bugs [1]; in vivo): 264 h
46 | CCCCCCO [Solution 1-Hexanol, 1-Hexanol] | – | – | 0 | – | – | Max. Mortality (adult bed bugs [1]; in vivo): 40%; Time to Max Mortality (adult bed bugs [1]; in vivo): 336 h
47 | CCCCCCCCCO [Solution 1-Nonanol, 1-Nonanol] | – | – | – | 2 | 100 | –
48 | CCCCCCCCCCCCO [Solution 1-dodecanol, 1-dodecanol] | – | – | – | 14 | 90 | –
49 | CCC(C)O (stereo not shown) [Solution 2-Butanol, 2-Butanol] | – | – | – | – | – | Max. Mortality (adult bed bugs [1]; in vivo): 20%; Time to Max Mortality (adult bed bugs [1]; in vivo): 336 h; % Eclosion (bed bug eggs [2]; in vivo): 100%
50 | CCCCCCC(C)O (stereo not shown) [Solution 2-Octanol, 2-Octanol] | – | – | – | 2 | 100 | –
51 | CCCCC(O)CC (stereo not shown) [Solution 3-Heptanol, 3-Heptanol] | – | – | – | 14 | 30 | –
52 | Cc1ccccc1 [Toluene] | – | – | – | 14 | 50 | –
53 | C/C=C/c1ccc(OC)cc1 [Trans-anethole] | – | – | – | 5 | 100 | –
54 | CCCCC(=O)c1ccccc1 [Valerophenone] | 24 | 100 | 0 | – | – | –
55 | CC(C)=CCC/C(C)=C/CO [geraniol] | – | – | – | – | – | prevention of egg eclosion (bed bug eggs [4]): complete prevention of egg eclosion
56 | Cc1ccc(C=O)cc1 [p-Tolualdehyde] | – | – | – | 6 | 50 | –
57 | Cc1ccc(C)cc1 [p-Xylene] | – | – | – | 14 | 30 | –
58 | Neem Oil | – | – | – | – | – | Max Mortality (adult bed bugs [5]): 10%
